Test results: patent US6613781B2, “Heterocyclylaklylindole or -azaindole compounds as 5-hydroxytryptamine-6 ligands” (Wyeth, priority 2000, dated 2003)
Where a name gives a salt, the structure may show the parent alone.

System: not given
Assay: not given
Conditions: not given
`COc1ccc(S(=O)(=O)n2cc(CC3CCNCC3)c3cc(F)ccc32)cc1OC` (as salt: hydrochloride) [Example 18, 1-[(3,4-dimethoxyphenyl)sulfonyl]-5-fluoro-3-(piperidin-4-ylmethyl)-1H-indole] showed a melting point of 246 °C.
In the case of `N#Cc1ccc(S(=O)(=O)n2cc(CC3CCNCC3)c3cc(F)ccc32)cc1` (as salt: hydrochloride) [Example 19, 4-{[5-fluoro-3-(piperidin-4-ylmethyl)-1H-indol-1-yl]sulfonyl}benzonitrile], the melting point is reported as 249 °C.
Compound `O=S(=O)(c1cccc2cccnc12)n1cc(CC2CCNCC2)c2cc(F)ccc21` (as salt: hydrochloride) [Example 20, 8-{[5-fluoro-3-(piperidin-4-ylmethyl)-1H-indol-1-yl]sulfonyl}quinoline] has a melting point of 245 °C.
`Nc1ccc(S(=O)(=O)n2cc(CC3CCNCC3)c3ccc(F)cc32)cc1` (as salt: hydrochloride) [Example 28] showed a melting point of 198 to 200 °C.

Target: T1, human cloned 5-HT6 receptors (Homo sapiens, UniProt P50406)
T1 construct: expressed in transfected cells; host or cells: Hela cells
T1 sequence (P50406 whole entry): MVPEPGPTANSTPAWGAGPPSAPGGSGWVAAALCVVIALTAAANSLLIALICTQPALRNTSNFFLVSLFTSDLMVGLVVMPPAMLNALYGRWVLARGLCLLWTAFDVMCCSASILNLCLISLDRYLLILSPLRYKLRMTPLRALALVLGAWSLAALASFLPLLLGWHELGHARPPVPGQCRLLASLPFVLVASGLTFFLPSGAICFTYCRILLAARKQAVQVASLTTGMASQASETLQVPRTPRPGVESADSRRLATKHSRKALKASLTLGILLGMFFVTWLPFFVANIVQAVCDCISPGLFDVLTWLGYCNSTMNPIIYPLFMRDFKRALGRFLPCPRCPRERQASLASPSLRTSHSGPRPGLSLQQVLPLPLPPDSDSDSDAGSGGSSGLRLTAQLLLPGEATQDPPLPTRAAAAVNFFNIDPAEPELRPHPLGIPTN
Assay: Comparative evaluation of 5-HT6 binding affinity ([3H]-LSD displacement, Hela cell membranes)
Conditions: not given
Procedure: The affinity of test compounds for the serotonin 5-HT6 receptor is evaluated in the following manner. Cultured Hela cells expressing human cloned 5-HT6 receptors are harvested and centrifuged at low speed (1,000×g) for 10.0 min to remove the culture media. The harvested cells are suspended in half volume of fresh physiological phosphate buffered saline solution and recentrifuged at the same speed. This operation is repeated. The collected cells are then homogenized in ten volumes of 50 mM Tris.HCl (pH 7.4) and 0.5 mM EDTA. The homogenate is centrifuged at 40,000×g for 30.0 min and the precipitate is collected. The obtained pellet is resuspended in 10 volumes of Tris.HCl buffer and recentrifuged at the same speed. The final pellet is suspended in a small volume of Tris.HCl buffer and the tissue protein content is determined in aliquots of 10-25 μl volumes. Bovine Serum Albumin is used as the standard in the protein determination according to the method described in Lowry et al., J. Biol. Chem., 193:265 (1951). The volume of the suspended cell membranes is adjusted to give a tissue protein concentration of 1.0 mg/ml of suspension. The prepared membrane suspension (10 times concentrated) is aliquoted in 1.0 ml volumes and stored at −70° C. until used in subsequent binding experiments.
Binding experiments are performed in a 96 well microtiter plate format, in a total volume of 200 μl. […] The test compounds are added in 20.0 μl volume.
The reaction is allowed to proceed in the dark for 120 min at room temperature, at which time, the bound ligand-receptor complex is filtered off on a 96 well unifilter with a Packard Filtermate® 196 Harvester. The bound complex caught on the filter disk is allowed to air dry and the radioactivity is measured in a Packard TopCount® equipped with six photomultiplier detectors, after the addition of 40.0 μl Microscint®-20 scintillant to each shallow well. The unifilter plate is heat-sealed and counted in a PackardTopCount® with a tritium efficiency of 31.0%.
Binding in the presence of varying concentrations of test compound is expressed as a percentage of specific binding in the absence of test compound. The results are plotted as log % bound versus log concentration of test compound. […] A linear regression line of data points is plotted, from which the IC50 value is determined and the Ki value is determined based upon the following equation: […]
where L is the concentration of the radioactive ligand used and KD is the dissociation constant of the ligand for the receptor, both expressed in nM.
Compound `CC(C)C[C@H]1C(=O)N2CCC[C@H]2[C@]2(O)O[C@](NC(=O)[C@@H]3C=C4c5cccc6[nH]c(Br)c(c56)C[C@H]4N(C)C3)(C(C)C)C(=O)N12` [Bromocriptine, reference compound] has a Ki of 0.023 µM.

Same assay, conditions: [3H]-LSD 3.0 nM; membranes of Hela cells expressing human cloned 5-HT6 receptors; 120 min, room temperature; read-out: 5-HT6 Binding Ki
Compound `O=S(=O)(c1ccccc1)n1cc(CC2CCNCC2)c2cc(F)ccc21` [Example 6, 5-Fluoro-1-phenylsulfonyl)-3-(4-piperidinylmethyl)-1H-indole hydrochloride] has a Ki of 0.012 µM.
Compound `Nc1ccc(S(=O)(=O)n2cc(CC3CCNCC3)c3cc(F)ccc32)cc1` [Example 7, 4-{[5-Fluoro-3-(4-piperidinylmethyl)-1H-indole-1-yl]sulfonyl}aniline] has a Ki of 0.001 µM.
In the case of `O=S(=O)(c1cccc2ccccc12)n1cc(CC2CCNCC2)c2cc(F)ccc21` [Example 10, 5-Fluoro-1-(1-naphthylsulfonyl)-3-(4-piperidinylmethyl)-1H-indole hydrochloride], the Ki is reported as 0.013 µM.
For `COc1ccc(S(=O)(=O)n2cc(CC3CCNCC3)c3cc(F)ccc32)cc1OC` [Example 18, 1-[(3,4-dimethoxyphenyl)sulfonyl]-5-fluoro-3-(piperidin-4-ylmethyl)-1H-indole], the Ki was 0.008 µM.
Compound `N#Cc1ccc(S(=O)(=O)n2cc(CC3CCNCC3)c3cc(F)ccc32)cc1` [Example 19, 4-{[5-fluoro-3-(piperidin-4-ylmethyl)-1H-indol-1-yl]sulfonyl}benzonitrile] has a Ki of 0.162 µM.
`O=S(=O)(c1cccc2cccnc12)n1cc(CC2CCNCC2)c2cc(F)ccc21` [Example 20, 8-{[5-fluoro-3-(piperidin-4-ylmethyl)-1H-indol-1-yl]sulfonyl}quinoline] gave a Ki of 0.002 µM.
`O=S(=O)(c1ccccc1)n1cc(CC2CCNCC2)c2ccc(F)cc21` [Example 21, 6-flouro-1-(phenylsulfonyl)-3-(4-piperidinylmethyl)-1H-indole] gave a Ki of 0.013 µM.
With `O=S(=O)(c1cccc2ccccc12)n1cc(CC2CCNCC2)c2ccc(F)cc21` [Example 22, 6-flouro-1-(1-naphthylsulfonyl)-3-(4-piperidinylmethyl)-1H-indole] the Ki was 0.024 µM.
Work on `COc1ccc(S(=O)(=O)n2cc(CC3CCNCC3)c3ccc(F)cc32)cc1OC` [Example 23, 6-flouro-1-(3,4-dimethoxyphenylsulfonyl)-3-(4-piperidinylmethyl)-1H-indole] yielded a Ki of 0.019 µM.
In the case of `O=S(=O)(c1ccccc1Cl)n1cc(CC2CCNCC2)c2ccc(F)cc21` [Example 24, 6-flouro-1-(2-chlorophenylsulfonyl)-3-(4-piperidinylmethyl)-1H-indole], the Ki is reported as 0.013 µM.
With `O=S(=O)(c1ccc(Cl)s1)n1cc(CC2CCNCC2)c2ccc(F)cc21` [Example 25, 6-flouro-1-(5-chlorothien-2-ylsulfonyl)-3-(4-piperidinylmethyl)-1H-indole] the Ki was 0.018 µM.
`O=S(=O)(c1ccccc1F)n1cc(CC2CCNCC2)c2ccc(F)cc21` [Example 26, 6-flouro-1-(2-fluorophenylsulfonyl)-3-(4-piperidinylmethyl)-1H-indole] showed a Ki of 0.017 µM.
`O=S(=O)(c1cccc(F)c1)n1cc(CC2CCNCC2)c2ccc(F)cc21` [Example 27, 6-flouro-1-(3-fluorophenylsulfonyl)-3-(4-piperidinylmethyl)-1H-indole] showed a Ki of 0.029 µM.
With `Nc1ccc(S(=O)(=O)n2cc(CC3CCNCC3)c3ccc(F)cc32)cc1` [Example 28] the Ki was 0.003 µM.
In the case of `CN1CCN(C2=Nc3ccccc3Oc3ccc(Cl)cc32)CC1` [Loxapine, reference compound], the Ki is reported as 0.0414 µM.
